Data taken from patent US10363239B2, “Method for inhibiting growth of cancer cells” (Pain Therapeutics, Inc., priority 2013, dated 2019).
Like-named read-outs stand apart in the source and are kept apart here.

How the values were obtained:
[1] = target: FLNA pentapeptide of SEQ ID NO: 1 (Bn-VAKGL) (Homo sapiens, UniProt P21333); test: FITC-NLX-based FLNA screening assay (inhibition of FITC-naloxone binding to Bn-VAKGL on streptavidin plates); conditions: 10 nM FITC-NLX
[2] = system: mu opiate receptor (MOR); test: MOR agonist activity using [35S]GTPγS binding assay in striatal membranes; assay type: biochemical; conditions: for MOR agonist activity ([35S]GTPγS binding), FLNA-Binding Compound as Agonist 1 μM + BFNA: 1 μM compound + 1 μM β-funaltrexamine
Procedure, shortened: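 Striatal membranes (200 μg) were preincubated 5 min at 30 °C in HEPES pH 7.5 with 100 mM NaCl, 1 mM MgCl2 and 0.5 nM [35S]GTPγS, then 5 min more with 0.1–10 μM compound. Gαo was immunoprecipitated and bound radioactivity counted by scintillation.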

[3] = FLNA-binding compound 0.01 μM, read-out: Percent Binding Inhibition
[4] = FLNA-binding compound 0.1 μM, read-out: Percent Binding Inhibition
[5] = FLNA-binding compound 1 μM, read-out: Percent Binding Inhibition
[6] = read-out: Percent Binding Inhibition, FLNA-binding compound 0.01 μM
[7] = read-out: Percent Binding Inhibition, FLNA-binding compound 0.1 μM
[8] = read-out: Percent Binding Inhibition, FLNA-binding compound 1 μM
[9] = Series C-2, 0.1 μM compound, relative to DAMGO
[10] = Series C-2, 0.1 μM compound, [35S]GTPγS binding to Gαo, striatal membranes
[11] = Series C-2, 1 μM compound + 1 μM β-FNA
[12] = Series C-2, 1 μM compound + β-FNA, relative to DAMGO + BFNA
[13] = Series C-2, 1 μM compound, relative to DAMGO
[14] = Series C-2, 1 μM compound, [35S]GTPγS binding to Gαo, striatal membranes
[15] = 0.1 μM compound relative to DAMGO
[16] = 1 μM compound + BFNA relative to DAMGO + BFNA
[17] = 1 μM compound relative to DAMGO

| SMILES | inhibition at 0.01 µM [1, 3] [%] | inhibition at 0.1 µM [1, 4] [%] | inhibition at 1 µM [1, 5] [%] | inhibition at 0.01 µM [1, 6] [%] | inhibition at 0.1 µM [1, 7] [%] | inhibition at 1 µM [1, 8] [%] | % DAMGO (0.1 μM) [2, 9] [%] | MOR agonist activity, percent [35S]GTPγS binding at the stated compound concentration [2, 10] [%] | MOR agonist activity, percent [35S]GTPγS binding at the stated compound concentration [2, 11] [%] | % DAMGO + BFNA [2, 12] [%] | % DAMGO (1 μM) [2, 13] [%] | MOR agonist activity, percent [35S]GTPγS binding at the stated compound concentration [2, 14] [%] | further results |
| --- | --- | --- | --- | --- | --- | --- | --- | --- | --- | --- | --- | --- | --- |
| COc1ccccc1CC(O)CC1c2c(cc3c(c2OC)OCO3)CCN1C (stereo not drawn) [Compound B0030] | 47 | 50.5 | 57.6 | – | – | – | – | – | – | – | – | – | % DAMGO (0.1 μM) ([2]; Series B, 0.1 μM compound, relative to DAMGO): 62.6%; MOR agonist activity, percent [35S]GTPγS binding at the stated compound concentration ([2]; Series B, 0.1 μM compound, [35S]GTPγS binding to Gαo, striatal membranes): 107.2%; MOR agonist activity, percent [35S]GTPγS binding at the stated compound concentration ([2]; Series B, 1 μM compound + 1 μM β-FNA): 90.1%; % DAMGO + BFNA ([2]; Series B, 1 μM compound + β-FNA, relative to DAMGO + BFNA): 172.9%; % DAMGO (1 μM) ([2]; Series B, 1 μM compound, relative to DAMGO): 103.4%; MOR agonist activity, percent [35S]GTPγS binding at the stated compound concentration ([2]; Series B, 1 μM compound, [35S]GTPγS binding to Gαo, striatal membranes): 276.1% |
| CCc1ccc(S(=O)(=O)N2CCOC23CCN(CC2CC2)CC3)cc1 [Compound C0135M] | – | – | – | 53.9 | 55.1 | 62.3 | 85.3 | 161.3 | 113.3 | 233.6 | 124.9 | 310.1 | – |
| COc1ccc(S(=O)(=O)N2CCOC23CCN(CC2CC2)CC3)cc1 [Compound C0090M] | – | – | – | 42.5 | 52.5 | 55.8 | 137.7 | 237.0 | 41.0 | 118.8 | 155.2 | 341.0 | – |
| COc1ccc(OCC(O)CN2CCOc3ccccc32)cc1 (stereo not drawn) [Compound A0076] | 36.1 | 40 | 44.9 | – | – | – | – | – | – | – | – | – | MOR agonist activity ([35S]GTPγS binding), FLNA-Binding Compound as Agonist 0.1 μM ([2]; 0.1 μM compound): 79.8%; % DAMGO (0.1 μM) [2, 15]: 46.4%; MOR agonist activity ([35S]GTPγS binding), FLNA-Binding Compound as Agonist 1 μM ([2]; 1 μM compound): 172.6%; MOR agonist activity ([35S]GTPγS binding), FLNA-Binding Compound as Agonist 1 μM + BFNA [2]: 41.2%; % DAMGO + BFNA [2, 16]: 119.4%; % DAMGO (1 μM) [2, 17]: 78.6% |
| O=S(=O)(c1cccc(OC(F)(F)F)c1)N1CCC2(CC1)OCCN2S(=O)(=O)c1cccc(OC(F)(F)F)c1 [Compound C0005] | – | – | – | 35.2 | 44.5 | 51.5 | – | – | – | – | – | – | % DAMGO (0.1 μM) ([2]; Series C-1, 0.1 μM compound, relative to DAMGO): 105.4%; Concentration of FLNA-Binding Compound as Agonist 0.1 μM ([2]; Series C-1, 0.1 μM compound, [35S]GTPγS binding to Gαo, striatal membranes): 180.4%; Concentration of FLNA-Binding Compound as Agonist 1 μM + BFNA ([2]; Series C-1, 1 μM compound + 1 μM β-FNA): 166.4%; % DAMGO + BFNA ([2]; Series C-1, 1 μM compound + β-FNA, relative to DAMGO + BFNA): 319.4%; % DAMGO (1 μM) ([2]; Series C-1, 1 μM compound, relative to DAMGO): 85.1%; Concentration of FLNA-Binding Compound as Agonist 1 μM ([2]; Series C-1, 1 μM compound, [35S]GTPγS binding to Gαo, striatal membranes): 227.2% |
| CN1CCC2(CC1)OCCN2S(=O)(=O)c1ccc(S(C)(=O)=O)cc1 [Compound C0106M] | – | – | – | 45.8 | 55.6 | 58.9 | 102.5 | 171.8 | 117.2 | 246.7 | 108.3 | 240.7 | – |
| CS(=O)(=O)c1ccc(S(=O)(=O)N2CCOC23CCN(CC2CC2)CC3)cc1 [Compound C0126M] | 50.7 | 55.4 | 67.3 | – | – | – | 108.5 | 181.8 | 108.5 | 228.4 | 119.3 | 265.3 | – |
| CCN(CC)CC(O)COC1CC(C)CCC1C(C)C (stereo not drawn) [Compound A0032] | – | – | – | 43 | 50.3 | 54.5 | – | – | – | – | – | – | MOR agonist activity ([35S]GTPγS binding), FLNA-Binding Compound as Agonist 0.1 μM ([2]; 0.1 μM compound): 226.9%; % DAMGO (0.1 μM) [2, 15]: 115.6%; MOR agonist activity ([35S]GTPγS binding), FLNA-Binding Compound as Agonist 1 μM ([2]; 1 μM compound): 257.8%; MOR agonist activity ([35S]GTPγS binding), FLNA-Binding Compound as Agonist 1 μM + BFNA [2]: 133.0%; % DAMGO + BFNA [2, 16]: 180.0%; % DAMGO (1 μM) [2, 17]: 93.4% |
